Experimental data from ChEMBL document CHEMBL1201862, “PubChem BioAssay data set” (2004).
Calls of active or inactive are those of the source.

Assays:
[1] = molecular target: T1, Tyrosine-protein phosphatase non-receptor type 22 (Homo sapiens, UniProt Q9Y2R2); assay: inhibition of lymphoid tyrosine phosphatase LYP – biochemical, pCAP fluorogenic substrate, fluorescence, set 3, SAR follow-up (AID 449727); format: functional
T1 sequence (Q9Y2R2 whole entry): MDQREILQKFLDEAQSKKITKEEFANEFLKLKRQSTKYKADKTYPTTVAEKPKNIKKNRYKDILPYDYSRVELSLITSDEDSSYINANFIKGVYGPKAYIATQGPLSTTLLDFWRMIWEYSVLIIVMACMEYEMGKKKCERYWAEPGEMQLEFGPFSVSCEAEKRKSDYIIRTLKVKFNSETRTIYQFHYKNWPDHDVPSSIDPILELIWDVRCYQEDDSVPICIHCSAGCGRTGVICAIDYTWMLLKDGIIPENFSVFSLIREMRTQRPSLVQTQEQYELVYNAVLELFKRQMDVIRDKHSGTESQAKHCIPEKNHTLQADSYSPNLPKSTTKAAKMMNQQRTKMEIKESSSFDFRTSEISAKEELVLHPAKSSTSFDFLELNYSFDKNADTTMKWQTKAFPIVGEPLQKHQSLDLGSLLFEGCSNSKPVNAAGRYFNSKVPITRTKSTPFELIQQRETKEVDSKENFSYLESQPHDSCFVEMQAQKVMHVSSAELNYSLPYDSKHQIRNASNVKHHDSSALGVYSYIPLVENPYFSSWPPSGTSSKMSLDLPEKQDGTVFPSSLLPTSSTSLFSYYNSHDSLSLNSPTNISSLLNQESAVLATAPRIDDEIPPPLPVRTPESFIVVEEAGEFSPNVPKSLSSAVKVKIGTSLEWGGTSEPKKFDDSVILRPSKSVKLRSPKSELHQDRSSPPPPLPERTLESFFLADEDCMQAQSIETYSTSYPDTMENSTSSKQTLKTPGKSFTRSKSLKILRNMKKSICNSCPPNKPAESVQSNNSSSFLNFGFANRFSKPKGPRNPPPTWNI

[2] = molecular target: Tyrosine-protein phosphatase non-receptor type 12 (Homo sapiens, UniProt Q05209); assay: SAR Selectivity Analysis of small molecule inhibitors of PEST using pCAP in a fluorescence assay. [Related pubchem assays (depositor defined):AID1779, AID1784, AID2135]; format: functional
Chain of Tyrosine-protein phosphatase non-receptor type 12 (Q05209 whole entry): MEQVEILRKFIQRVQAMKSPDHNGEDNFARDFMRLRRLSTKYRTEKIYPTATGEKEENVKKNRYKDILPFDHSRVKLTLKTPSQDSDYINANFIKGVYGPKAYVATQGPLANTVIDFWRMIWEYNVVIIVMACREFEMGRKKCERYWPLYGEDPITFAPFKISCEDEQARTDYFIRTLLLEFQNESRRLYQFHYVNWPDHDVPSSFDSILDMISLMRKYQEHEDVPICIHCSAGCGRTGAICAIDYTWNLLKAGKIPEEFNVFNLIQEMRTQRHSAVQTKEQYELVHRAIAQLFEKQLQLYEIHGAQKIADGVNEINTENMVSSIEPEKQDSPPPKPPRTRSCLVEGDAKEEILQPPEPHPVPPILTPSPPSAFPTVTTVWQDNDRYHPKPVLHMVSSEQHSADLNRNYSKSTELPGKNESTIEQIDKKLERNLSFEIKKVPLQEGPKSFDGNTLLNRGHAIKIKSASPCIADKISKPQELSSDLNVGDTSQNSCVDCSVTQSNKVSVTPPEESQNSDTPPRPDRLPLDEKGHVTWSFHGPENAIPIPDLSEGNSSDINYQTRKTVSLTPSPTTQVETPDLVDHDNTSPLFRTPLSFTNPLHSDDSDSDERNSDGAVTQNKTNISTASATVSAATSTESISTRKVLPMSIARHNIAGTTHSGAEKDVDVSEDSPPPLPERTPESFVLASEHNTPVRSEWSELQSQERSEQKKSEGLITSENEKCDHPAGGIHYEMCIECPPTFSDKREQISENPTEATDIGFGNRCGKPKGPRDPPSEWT

[3] = molecular target: T1, Tyrosine-protein phosphatase non-receptor type 22; assay: SAR LYP1 Fluorescent Assay using OMFP substrate for In Vitro dose response studies - Set 3. [Related pubchem assays (depositor defined):AID1779, AID1784, AID2140, AID2686]; format: functional
[4] = molecular target: G-protein coupled receptor 55 (Homo sapiens, UniProt Q9Y2T6); assay: blockers of GPR55 signalling, imaged – imaging, image-based, counter-screen for GPR35 antagonist project, SAR follow-up (AID 2397); format: functional
[5] = molecular target: Voltage-gated N-type calcium channel alpha-1B subunit/Amyloid beta A4 precursor protein-binding family A member 1 (Homo sapiens, UniProt Q00975+Q02410); format: protein assay
Chain of Voltage-gated N-type calcium channel alpha-1B subunit/Amyloid beta A4 precursor protein-binding family A member 1 (Q00975 whole entry): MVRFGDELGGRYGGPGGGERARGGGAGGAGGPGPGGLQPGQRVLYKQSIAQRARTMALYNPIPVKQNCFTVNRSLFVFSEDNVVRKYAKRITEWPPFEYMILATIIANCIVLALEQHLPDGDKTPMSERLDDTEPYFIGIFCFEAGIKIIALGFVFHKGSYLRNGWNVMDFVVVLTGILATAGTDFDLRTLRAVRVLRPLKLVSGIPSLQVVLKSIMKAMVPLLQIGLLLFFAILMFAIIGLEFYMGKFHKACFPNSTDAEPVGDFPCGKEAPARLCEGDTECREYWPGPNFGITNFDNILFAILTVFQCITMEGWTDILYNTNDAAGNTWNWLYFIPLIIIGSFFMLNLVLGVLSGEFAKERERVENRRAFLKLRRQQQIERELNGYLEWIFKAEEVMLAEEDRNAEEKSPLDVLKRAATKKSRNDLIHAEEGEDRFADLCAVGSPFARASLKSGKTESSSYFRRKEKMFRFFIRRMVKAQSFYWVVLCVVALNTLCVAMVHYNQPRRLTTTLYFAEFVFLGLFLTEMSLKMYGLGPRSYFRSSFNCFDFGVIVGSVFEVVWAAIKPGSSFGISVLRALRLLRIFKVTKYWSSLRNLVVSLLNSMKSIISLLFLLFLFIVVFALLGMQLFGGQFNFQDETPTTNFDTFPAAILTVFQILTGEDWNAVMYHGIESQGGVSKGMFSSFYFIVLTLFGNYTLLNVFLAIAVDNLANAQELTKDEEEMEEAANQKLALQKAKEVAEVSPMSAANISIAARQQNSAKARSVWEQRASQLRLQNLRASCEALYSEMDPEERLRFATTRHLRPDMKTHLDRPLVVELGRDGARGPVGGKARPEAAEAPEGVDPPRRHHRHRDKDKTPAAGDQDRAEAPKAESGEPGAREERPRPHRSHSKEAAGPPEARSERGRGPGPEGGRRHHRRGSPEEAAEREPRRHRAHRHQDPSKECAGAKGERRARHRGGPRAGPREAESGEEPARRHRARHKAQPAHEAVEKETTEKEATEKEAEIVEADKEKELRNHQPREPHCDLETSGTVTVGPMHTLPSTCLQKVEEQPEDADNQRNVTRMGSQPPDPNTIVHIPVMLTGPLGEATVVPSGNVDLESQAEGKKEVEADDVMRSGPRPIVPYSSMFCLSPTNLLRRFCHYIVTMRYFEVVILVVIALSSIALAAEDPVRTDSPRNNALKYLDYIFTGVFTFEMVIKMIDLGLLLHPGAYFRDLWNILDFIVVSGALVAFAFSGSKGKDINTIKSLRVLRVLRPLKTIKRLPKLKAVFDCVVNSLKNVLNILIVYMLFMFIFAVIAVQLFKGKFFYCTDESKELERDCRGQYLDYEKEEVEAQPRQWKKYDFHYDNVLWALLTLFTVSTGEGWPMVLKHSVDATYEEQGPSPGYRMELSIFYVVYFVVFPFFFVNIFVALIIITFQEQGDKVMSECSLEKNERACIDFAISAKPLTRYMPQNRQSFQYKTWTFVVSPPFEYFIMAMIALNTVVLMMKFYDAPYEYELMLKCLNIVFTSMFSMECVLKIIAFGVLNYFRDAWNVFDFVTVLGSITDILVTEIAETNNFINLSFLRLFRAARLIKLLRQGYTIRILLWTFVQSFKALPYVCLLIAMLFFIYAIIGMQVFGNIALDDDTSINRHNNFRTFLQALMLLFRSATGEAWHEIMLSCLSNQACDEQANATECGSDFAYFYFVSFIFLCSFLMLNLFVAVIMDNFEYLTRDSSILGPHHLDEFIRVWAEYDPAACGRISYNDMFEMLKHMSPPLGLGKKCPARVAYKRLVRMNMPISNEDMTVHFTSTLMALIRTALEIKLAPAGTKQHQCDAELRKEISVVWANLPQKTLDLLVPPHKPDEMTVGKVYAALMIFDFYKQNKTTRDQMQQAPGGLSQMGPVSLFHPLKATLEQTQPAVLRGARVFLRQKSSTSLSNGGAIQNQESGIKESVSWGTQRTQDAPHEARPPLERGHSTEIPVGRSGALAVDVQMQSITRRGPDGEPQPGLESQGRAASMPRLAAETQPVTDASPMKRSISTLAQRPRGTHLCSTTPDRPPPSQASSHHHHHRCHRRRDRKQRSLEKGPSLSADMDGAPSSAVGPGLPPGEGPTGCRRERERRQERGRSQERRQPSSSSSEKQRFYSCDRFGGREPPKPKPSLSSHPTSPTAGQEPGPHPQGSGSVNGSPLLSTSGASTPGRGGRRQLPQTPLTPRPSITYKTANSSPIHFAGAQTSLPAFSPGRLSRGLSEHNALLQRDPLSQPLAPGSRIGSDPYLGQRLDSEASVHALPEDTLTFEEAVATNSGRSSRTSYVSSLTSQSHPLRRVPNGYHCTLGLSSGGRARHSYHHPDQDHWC
Chain of Voltage-gated N-type calcium channel alpha-1B subunit/Amyloid beta A4 precursor protein-binding family A member 1 (Q02410 whole entry): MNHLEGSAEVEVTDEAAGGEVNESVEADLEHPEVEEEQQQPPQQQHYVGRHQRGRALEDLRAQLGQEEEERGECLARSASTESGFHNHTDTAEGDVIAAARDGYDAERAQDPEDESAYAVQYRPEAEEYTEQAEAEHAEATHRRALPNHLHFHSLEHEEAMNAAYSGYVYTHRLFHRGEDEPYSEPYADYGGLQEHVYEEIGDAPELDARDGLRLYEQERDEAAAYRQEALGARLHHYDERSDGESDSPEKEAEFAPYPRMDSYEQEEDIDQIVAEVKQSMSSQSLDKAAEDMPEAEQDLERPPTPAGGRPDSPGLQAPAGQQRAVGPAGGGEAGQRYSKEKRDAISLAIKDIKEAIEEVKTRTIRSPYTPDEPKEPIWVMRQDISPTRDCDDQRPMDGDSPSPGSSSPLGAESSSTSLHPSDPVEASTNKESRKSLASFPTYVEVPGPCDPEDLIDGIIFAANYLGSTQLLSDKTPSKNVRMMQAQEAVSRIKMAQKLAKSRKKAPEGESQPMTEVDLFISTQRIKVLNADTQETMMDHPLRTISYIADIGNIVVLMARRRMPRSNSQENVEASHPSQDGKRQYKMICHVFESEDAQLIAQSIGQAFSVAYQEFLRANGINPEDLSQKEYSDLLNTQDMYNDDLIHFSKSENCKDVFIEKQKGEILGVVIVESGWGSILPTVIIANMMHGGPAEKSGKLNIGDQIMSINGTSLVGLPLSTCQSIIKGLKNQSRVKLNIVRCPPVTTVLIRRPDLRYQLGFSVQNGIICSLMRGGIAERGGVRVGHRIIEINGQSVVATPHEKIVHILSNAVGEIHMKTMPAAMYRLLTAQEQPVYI

[6] = viability of uninfected HEp-2 cells – cell-based, HTS, cytotoxicity control for RSV inhibitor project, dose response (AID 2410); format: functional; conditions: human respiratory syncytial virus
[7] = molecular target: T2, Dual specificity protein phosphatase 6 (Rattus norvegicus, UniProt Q64346); assay: inhibition of rat DUSP6 enzyme activity – biochemical, in vitro, primary screen (AID 425)
T2 sequence (Q64346 whole entry): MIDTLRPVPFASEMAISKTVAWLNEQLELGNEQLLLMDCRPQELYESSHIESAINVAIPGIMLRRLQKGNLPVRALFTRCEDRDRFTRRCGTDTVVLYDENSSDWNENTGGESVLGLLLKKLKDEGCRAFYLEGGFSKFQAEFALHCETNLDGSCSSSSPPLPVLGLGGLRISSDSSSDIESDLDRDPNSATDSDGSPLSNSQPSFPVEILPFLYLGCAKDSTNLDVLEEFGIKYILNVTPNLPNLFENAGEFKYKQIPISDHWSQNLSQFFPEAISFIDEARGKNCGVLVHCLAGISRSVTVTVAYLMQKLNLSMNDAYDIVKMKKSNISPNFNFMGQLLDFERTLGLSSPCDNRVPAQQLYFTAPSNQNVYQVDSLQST

[8] = molecular target: T3, Calpain-2 catalytic subunit (Sus scrofa, UniProt P43367); assay: m-calpain protease blockers, concentration series – biochemical, fluorogenic peptide substrate, dose response (AID 1420); format: functional
T3 sequence (P43367 whole entry): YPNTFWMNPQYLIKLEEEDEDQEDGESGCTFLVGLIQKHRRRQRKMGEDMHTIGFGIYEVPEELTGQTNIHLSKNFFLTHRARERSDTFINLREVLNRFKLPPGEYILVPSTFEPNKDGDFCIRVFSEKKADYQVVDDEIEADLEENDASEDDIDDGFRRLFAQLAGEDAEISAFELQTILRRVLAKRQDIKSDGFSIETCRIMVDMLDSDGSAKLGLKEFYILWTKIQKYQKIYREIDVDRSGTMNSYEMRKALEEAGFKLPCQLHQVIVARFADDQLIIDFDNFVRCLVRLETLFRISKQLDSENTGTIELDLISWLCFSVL

[9] = molecular target: T4, Dual specificity protein phosphatase 3 (Homo sapiens, UniProt P51452); assay: VHR1 phosphatase inhibitors, primary screen, biochemical, absorbance, uHTS (AID 1654)
T4 sequence (P51452 whole entry): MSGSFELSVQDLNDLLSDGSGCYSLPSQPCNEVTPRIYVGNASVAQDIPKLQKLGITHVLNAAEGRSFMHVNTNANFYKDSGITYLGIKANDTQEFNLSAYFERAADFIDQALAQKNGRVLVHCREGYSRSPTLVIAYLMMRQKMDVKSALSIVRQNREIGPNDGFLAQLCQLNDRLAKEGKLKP

[10] = molecular target: T4, Dual specificity protein phosphatase 3; assay: VHR1 phosphatase inhibitors, biochemical (AID 1878)
[11] = molecular target: Eukaryotic translation initiation factor 4E (Mus musculus, UniProt P63073); assay: blockers of eIF4G binding by eIF4E – biochemical, TR-FRET, dose response (AID 855); format: functional;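 also: potency for disrupting eIF4E binding to eIF4GI seen as loss of FRET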
[12] = NIH3T3 cell viability loss – ATP luminescence, mouse fibroblasts, counter-screen, dose response (AID 2010); format: functional, cell-based;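 also: cells exposed to compound for about 90 hours before reading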
[13] = molecular target: T5, Short transient receptor potential channel 4 (Mus musculus, UniProt Q9QUQ5); assay: block of DAMGO-driven TRPC4 calcium entry – cell-based, HEK293 TRPC4/mu-opioid, Fluo-4 calcium, dose response (AID 434942); format: functional;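 also: potency of inhibitors blocking the TRPC4 calcium response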
T5 sequence (Q9QUQ5 whole entry): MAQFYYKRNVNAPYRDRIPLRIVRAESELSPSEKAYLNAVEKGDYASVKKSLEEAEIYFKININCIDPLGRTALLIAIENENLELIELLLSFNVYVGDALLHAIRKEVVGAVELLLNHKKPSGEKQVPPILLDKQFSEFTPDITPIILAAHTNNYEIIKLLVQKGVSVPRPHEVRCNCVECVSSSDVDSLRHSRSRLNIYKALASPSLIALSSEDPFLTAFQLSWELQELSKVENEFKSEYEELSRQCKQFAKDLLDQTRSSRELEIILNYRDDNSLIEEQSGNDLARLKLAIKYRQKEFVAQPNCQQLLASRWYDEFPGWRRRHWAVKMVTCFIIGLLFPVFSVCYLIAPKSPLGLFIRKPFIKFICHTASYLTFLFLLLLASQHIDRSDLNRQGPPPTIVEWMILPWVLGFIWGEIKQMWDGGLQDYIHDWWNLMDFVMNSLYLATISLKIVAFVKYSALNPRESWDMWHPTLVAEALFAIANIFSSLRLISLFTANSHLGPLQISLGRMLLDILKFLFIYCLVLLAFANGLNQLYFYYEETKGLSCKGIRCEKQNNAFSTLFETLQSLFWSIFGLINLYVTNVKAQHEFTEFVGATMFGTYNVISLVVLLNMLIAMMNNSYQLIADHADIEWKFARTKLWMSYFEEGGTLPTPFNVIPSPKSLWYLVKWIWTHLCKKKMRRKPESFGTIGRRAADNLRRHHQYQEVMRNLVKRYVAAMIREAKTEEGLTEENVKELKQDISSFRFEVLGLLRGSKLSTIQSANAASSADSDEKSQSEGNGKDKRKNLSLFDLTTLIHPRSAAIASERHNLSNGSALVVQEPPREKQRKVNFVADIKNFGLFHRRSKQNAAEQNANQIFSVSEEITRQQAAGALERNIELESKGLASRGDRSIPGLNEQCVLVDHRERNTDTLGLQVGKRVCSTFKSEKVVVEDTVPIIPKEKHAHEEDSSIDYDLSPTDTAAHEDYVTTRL

Mu-type opioid receptor = Mu-type opioid receptor (Homo sapiens, UniProt P35372); assay: HTS Image-Based Screen for Agonists of the MOR Receptor. [Related pubchem assays (depositor defined):AID1777, AID1785, AID1786, AID2133]; format: functional;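 also: imaging of beta-arrestin GFP recruitment into spots after receptor activation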
[14] = molecular target: T6, Delta-type opioid receptor (Homo sapiens, UniProt P41143); assay: HTS Image-Based Screen for Antagonists of the DOR Receptor. [Related pubchem assays (depositor defined):AID1777, AID1785, AID1786, AID2133]; format: functional
T6 sequence (P41143 whole entry): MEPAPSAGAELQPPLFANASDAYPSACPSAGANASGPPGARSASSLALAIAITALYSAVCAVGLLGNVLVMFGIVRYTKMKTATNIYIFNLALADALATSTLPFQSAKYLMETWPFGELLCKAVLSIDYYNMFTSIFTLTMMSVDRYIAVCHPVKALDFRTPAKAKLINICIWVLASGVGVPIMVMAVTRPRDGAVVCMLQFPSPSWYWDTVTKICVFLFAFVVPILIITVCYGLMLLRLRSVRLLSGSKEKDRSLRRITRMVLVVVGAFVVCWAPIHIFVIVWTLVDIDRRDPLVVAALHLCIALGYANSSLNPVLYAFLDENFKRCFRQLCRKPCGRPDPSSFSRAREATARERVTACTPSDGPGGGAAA

[15] = viability of HCT116 lacking mutant beta-catenin – cell-based, human colon tumor, dose response (AID 1045); format: functional;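 also: HCT116 colon tumor cells with beta catenin knocked out; cells exposed to compound for 60 hours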
Streptococcus = assay: GAS UMAA2166 growth inhibition – luminescence, BacTiterGlo, counter-screen for streptokinase expression inhibitor project, dose response (AID 1915); format: functional, organism-based;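 also: potency for reduction of bacterial viability or growth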
INS1 = assay: INS-1E survival protection against cytokine death – cell-based, luminescence, retest, dose response (AID 449756); format: functional; conditions: Rattus norvegicus;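 also: cell death triggered by IL-1 beta plus TNF-alpha plus IFN-gamma mixture; protective hits raise ATP signal compared with cytokine alone wells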
Nonstructural protein 1 = Nonstructural protein 1 (Influenza A virus, UniProt Q194T2); format: functional, Influenza A virus (A/California/07/2009(H1N1))
[16] = molecular target: T7, Kappa-type opioid receptor (Homo sapiens, UniProt P41145); format: functional
T7 sequence (P41145 whole entry): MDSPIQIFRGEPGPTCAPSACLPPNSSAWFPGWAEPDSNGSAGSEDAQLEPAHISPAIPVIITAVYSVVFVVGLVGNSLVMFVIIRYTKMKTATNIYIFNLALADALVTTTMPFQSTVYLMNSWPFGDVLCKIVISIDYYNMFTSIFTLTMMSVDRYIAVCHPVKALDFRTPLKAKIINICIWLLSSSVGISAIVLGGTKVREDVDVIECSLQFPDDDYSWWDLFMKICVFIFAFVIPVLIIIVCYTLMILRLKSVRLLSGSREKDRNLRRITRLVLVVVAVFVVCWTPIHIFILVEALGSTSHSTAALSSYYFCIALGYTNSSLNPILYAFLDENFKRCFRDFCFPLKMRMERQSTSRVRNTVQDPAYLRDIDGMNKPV

[17] = alpha-synuclein stem-loop luciferase translation blockers – H4 neuroglioma cells, luminescence, confirmation (AID 1988); format: functional, cell-based
Streptokinase A = molecular target: T8, Streptokinase A (Streptococcus pyogenes serotype M1, UniProt P10520); assay: viability-normalized secreted streptokinase activity reduction – plasminogen activation absorbance, OD405, dose response (AID 1914); format: functional, Streptococcus pyogenes M1 GAS;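 also: secreted streptokinase activity via plasminogen activation per viability signal from cell pellet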
T8 sequence (P10520 whole entry): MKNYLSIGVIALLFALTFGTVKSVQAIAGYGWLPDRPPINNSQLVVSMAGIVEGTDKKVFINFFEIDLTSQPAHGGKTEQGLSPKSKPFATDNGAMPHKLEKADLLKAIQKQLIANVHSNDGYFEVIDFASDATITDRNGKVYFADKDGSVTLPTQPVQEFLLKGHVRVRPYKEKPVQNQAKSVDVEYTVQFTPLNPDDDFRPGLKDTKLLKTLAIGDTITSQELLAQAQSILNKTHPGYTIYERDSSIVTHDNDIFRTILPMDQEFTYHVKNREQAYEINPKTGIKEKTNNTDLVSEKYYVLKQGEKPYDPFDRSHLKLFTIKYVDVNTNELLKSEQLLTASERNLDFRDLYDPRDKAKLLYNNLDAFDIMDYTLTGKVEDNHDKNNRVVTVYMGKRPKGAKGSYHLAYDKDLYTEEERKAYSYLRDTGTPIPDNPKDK

[18] = MIN6 cell viability loss – mouse insulinoma, cytotoxicity control, dose response (AID 2122); format: functional;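 also: confirmatory high-throughput counterscreen run to flag cytotoxic compounds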
[19] = reduction of Shn3 3'UTR-driven luciferase in osteoblasts – cell-based, Clone20 osteoblasts, firefly luciferase, cherry-picked, dose response (AID 624132); format: functional;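 also: firefly luciferase luminescence from reporter carrying the Shn3 3'UTR in osteoblasts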
cells [20] = format: functional, cell-based
[21] = molecular target: T6, Delta-type opioid receptor; assay: HTS Image-Based Screen for Agonists of the DOR Receptor. [Related pubchem assays (depositor defined):AID1777, AID1786, AID2133]; format: functional
cells [22] = format: functional, cell-based; remark: listed apart in the source
[23] = molecular target: T7, Kappa-type opioid receptor; format: functional; remark: listed apart in the source
Beta-galactosidase = Beta-galactosidase (Escherichia coli, UniProt Q8VNN2); format: functional
[24] = microbe, parasite or virus in culture; format: functional; conditions: Mycobacterium tuberculosis
[25] = system: Streptococcus sp. 'group A'; assay: Streptococcus pyogenes SK(-)GAS viability under kanamycin – luminescence, BacTiterGlo, confirmation, counter-screen for streptokinase expression inhibitor project, dose response (AID 1900); format: functional, organism-based
[26] = decrease of insulin promoter-GFP reporter – imaging, high-content screening, mouse beta cells (AID 1628); format: functional; conditions: MIN6
[27] = loss of viability in HepG2 cells – cell-based, CellTiter-Glo, cherry-picked, cytotoxicity control for Shn3 inhibitor project, dose response (AID 624134); format: functional
[28] = Trypanosoma cruzi growth suppression in host cells – NIH3T3 host cells, beta-gal luminescence, confirmation (AID 2044); format: functional, cell-based;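 also: intracellular parasites grown in NIH/3T3 mouse fibroblasts as host cells; luminescent beta-galactosidase reporter signal from transgenic T. cruzi replicating inside host cells; inhibitors lower the luminescence signal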
[29] = non-specific 3'UTR reporter inhibition in Clone20-Shn3RL – cell-based, Renilla luciferase, cherry-picked, counter-screen for Shn3 inhibitor project, dose response (AID 624133); format: functional
[30] = luciferase reporter signal suppression in cells – H4 neuroglioma cells, luminescence, dose response (AID 1990); format: functional, cell-based
[31] = viability of PTEN-deleted HCT116 cells – cell-based, HCT116 PTEN knockout, dose response (AID 1047); format: functional;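 also: HCT116 colon tumor cells with PTEN knocked out; cells exposed to compound for 60 hours before readout; potency for loss of cell viability measured by luminescence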

## CCOC(=O)c1ccc(NC(=O)CCCN2C(=O)/C(=C/c3ccccc3)SC2=S)cc1
[1]
  IC50: > 100 µM (inactive)
[2]
  IC50: 94.2 µM (active)
[3]
  IC50: > 100 µM (inactive)
[4]
  IC50: > 32 µM (inactive)

## O=C(Nc1ccc(Cl)c(Cl)c1)Nc1nnc(-c2ccncc2)s1
[5]
  IC50: 21.1 µM (active)
[6]
  CC50: 5.14 µM (active)
[7]
  IC50: 16.2 µM (active)
[8]
  IC50: 3.64 µM (active)
[9]
  IC50: 5.3 µM (active)
[10]
  IC50: 1.56 µM (active)
[11]
  IC50: > 64 µM (inactive)

## Oc1ccc(CN2CCc3ccccc3C2)c2cccnc12
[12]
  EC50: 5.88 µM (active)
[13]
  EC50: 7.5 µM (active)
Mu-type opioid receptor
  EC50: > 32 µM (inactive)
[14]
  IC50: > 32 µM (inactive)
[15]
  EC50: 1.52 µM (active)
Streptococcus
  EC50: 13.8 µM (active)
INS1
  AC50: 1.83 µM (active)
Nonstructural protein 1
  IC50: 5.76 µM (active)
[16]
  IC50: > 32 µM
[17]
  EC50: 0.528 µM (active)
Streptokinase A
  EC50: > 150 µM (not active)
[18]
  IC50: 1.69 µM (active)
[19]
  AC50: 0.673 µM (active)
Cells [20]
  EC50: > 350 µM (not active)
[21]
  EC50: > 32 µM (inactive)
Cells [22]
  EC50: 4.63 µM (active)
[23]
  IC50: 14 µM (active)
Beta-galactosidase
  EC50: > 31.5 µM (inactive)
[24]
  CC50: 1.62 µM (active)
[25]
  EC50: 6.14 µM (active)
[26]
  IC50: 1.96 µM (active)
[27]
  AC50: 1.69 µM (active)
[28]
  EC50: 0.529 µM (active)
[29]
  AC50: 0.971 µM (active)
[30]
  EC50: < 0.1 µM (active)
[31]
  EC50: 1.82 µM (active)
